Test system: Alternaria solani
Assay: Activity against early blight of tomato caused by Alternaria solani (protective spray, potted plants)
Format: in vivo
Conditions: 63 ppm active compound, tomato cultivar Goldene Prinzessin, infected next day, assessed after 5 days; untreated plants 90% infected
Description: The active compounds were prepared as a stock solution comprising 0.25% by weight of active compound in acetone or DMSO. 1% by weight of the emulsifier Uniperol® EL (wetting agent having emulsifying and dispersing action based on ethoxylated alkylphenols) was added to this solution, and the mixture was diluted with water to the desired concentration. Leaves of potted plants of the cultivar “Goldene Prinzessin” were sprayed to run off point with an aqueous suspension having the concentration of active compounds stated below. The next day, the leaves were infected with an aqueous […] suspension of Alternaria solani in 2% biomalt solution having a density of 0.17×10^6 spores/ml. The plants were then placed in a water-vapor-saturated chamber at temperatures of between 20 and 22° C. After 5 days, the disease on the leaves of the untreated, but infected control plants had developed to such an extent that the infection could be determined visually in %.

## CCC(C)Nc1c(-c2ccc(OC)cc2Cl)c(Cl)nc2ncnn12 (racemic) [Compound I-3, 5-chloro-6-(2-chloro4-methoxyphenyl)-7-but-2-ylamino-[1,2,4]-triazolo[1,5-a]pyrimidine]
  infection of the leaves, determined visually in %: no infection
